Results as given in US9480727B2, “Synthetic peptide for inhibiting expression of type 2 TNF receptor and use thereof” (TOAGOSEI CO., LTD., priority 2012, dated 2016).

What was measured:
TNF-R1 [1] = test: TNF-R1 expression (immunofluorescence, flow cytometry) in mouse Neuro 2a cells; type: cell-based; settings: Neuro 2a cells after retinoic acid induction, 5 μM peptide, two days; fluorescence intensity relative to control = 1 (FIG. 1)
Description: The activities of the two peptides synthesized in Example 1 above were tested with cultured cells of a mouse spinal cord, neuroblastoma cell line (Neuro 2a). The control group was supplied with no peptides. The test details are described below.
The Neuro 2a cell line was seeded in a culture dish of 6 cm diameter at a density of 8.5×10^4 cells/mL and incubated overnight in a general DMEM culture medium (with 10% FBS, 1% penicillin) at 37° C. in a CO2 incubator at 5% CO2.
After incubated overnight, the culture medium was replaced with a DMEM culture medium containing 2% FBS, 20 μM retinoic acid and 1% penicillin. […]
(§1) After completion of the incubation, cultured cells in each test group were collected and divided into certain test tubes in fractions having the same number of cells. By the immunofluorescence technique described below, the expression (presence) of TNF-R1 and TNF-R2 was then assessed in each test group (group supplied with no peptide, group supplied with Sample 1, group supplied with Sample 2). […]
(§2) The fluorescence intensities of cells were measured with a flow cytometer (a Millipore system product, Guava® easyCyte 8HT). For both TNF-R2 and TNF-R1, the fluorescence intensities are shown as relative values with the fluorescence intensities of TNF-R2 and TNF-R1 in the control group (group supplied with no peptide) being 1, respectively.

TNF-R1 [2] = test: TNF-R1 expression (immunofluorescence, flow cytometry) in human SK-N-SH cells; type: cell-based; settings: SK-N-SH cells after retinoic acid induction, 5 μM peptide, two days; fluorescence intensity relative to control = 1 (FIG. 2)
Description: The activities of the two peptides synthesized in Example 1 above were tested with cultured cells of a human neuroblastoma cell line (SK-N-SH). The control group was supplied with no peptides. The test details are described below.
The SK-N-SH cell line was seeded in a 4 mL fraction in a culture dish of 6 cm diameter at a density of 1.5×10^5 cells/mL and incubated in a general DMEM culture medium (with 10% FBS, 2 mM L-glutamine, 50 unit/mL penicillin, and 50 μg/mL streptomycin) at 37° C. in a CO2 incubator at 5% CO2 over two nights. […]
as §1, with “same number of” for “same”
as §2

Row | Sequence | presence (expression) of TNF-R1 as compared with the control group (TNF-R1 [1]) | presence (expression) of TNF-R1 as compared with the control group (TNF-R1 [2])
1 | MLPSLALLLLAAWTVRA (listed as Mus musculus) [Sample 2] | no significant change | no significant change
2 | MLPGLALLLLAAWTARA (listed as Homo sapiens) [Sample 1] | no significant change | no significant change
